From patent US20070167408A1, “NOVEL ALKYL PHOSPHOLIPID DERIVATIVES WITH REDUCED CYTOTOXICITY AND USES THEREOF” (ZENTARIS GmbH, priority 2005, published 2007)
In brackets after ≈: the same amount, converted by molar mass.

Columns and labels:
[1] = test system: RKOp21 (human colon adenocarcinoma) cells; assay: XTT cytotoxicity assay, RKOp21 cells; assay type: cell-based; details: Homo sapiens; 31.6 μM, second set of experiments; read-out: RKOp21 % INH [31.6 μM]
Method in brief: (§1)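 Cells recovered 24 h after plating, then exposed to compounds for 48 h at 37 °C; one set used 10 semi-log concentrations from 100 μM, another 31.6 μM final for PC3 and RKOp21. XTT-PMS added for 3 h, formazan absorbance at 490 nm versus untreated cells; IC50 from inhibition curves.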

[2] = test system: Moraxella catarrhalis DMS 11994 (ATCC 43617); assay: Anti-bacterial bouillon microdilution assay (MIC), bacterium D; assay type: cell-based; details: ATCC43617, 24 h
Method in brief: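 Broth microdilution MIC per DIN 58940-5/-7. Twofold compound dilutions in water spanned 256 to 0.125 μg/ml in the test concentration series, with inocula of about 1×10^6 organisms/ml in strain-appropriate media. Growth was read as turbidity at 595 nm before and after incubation, against growth and sterile controls.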

[3] = test system: PC3, RKOp21 and SKOV-3 cell lines; assay: XTT cytotoxicity assay, mean over all three cell lines; assay type: cell-based, human; details: mean value over all three cell lines
Protocol: Following 2 days of continuous drug exposure 50 μl of freshly prepared XTT-PMS solution {2% 0.386 mg/ml PMS (N-Methyl Dibenzopyrazine Methylsulphate; Sigma, Cat. No. […] Serva, Cat. No. 38450) in RPMI 1640 medium without phenol red} was added to the wells. To measure the proportion of living cells, the cells were incubated for 3 h with XTT-PMS reagent at 37° C., 5% CO2, humidified atmosphere allowing to form the formazan salt. […] Inhibition curves were generated and IC50 values calculated by using GraphPad Prism. In the following table 7 cytotoxicity results (% inhibition of cell growth) obtained in the second set of experiments for selected compounds of the invention are presented in comparison to examples of the prior art (perifosine, miltefosine). The results presented are individual values for the respective cell line as well as the mean value over all three cell lines tested.

[4] = test system: Streptococcus pneumoniae DSM 20566 (ATCC 33400); assay: Anti-bacterial bouillon microdilution assay (MIC), bacterium A; assay type: cell-based; details: Streptococcus pneumoniae DSM 20566, 24 h
Protocol: (§2) Selected compounds of the invention were tested in a bouillon microdilution assay method according to the DIN 58940 (www.din.de) guidelines for determination of susceptibility of bacterial strains with regard to cell growth inhibition. The assay method quantifies bacterial cell growth which corresponds to the turbidity of the liquid culture medium by photometric measurement carried out at 595 nm.
(§3) The method of MIC determination was performed according to DIN 58940-5. The volumina were adapted according to the microdilution method as described in DIN 58940-7 guideline.
(§4) Dependent on water solubility, compounds of the invention were dissolved either in water or ethanol in a concentration of 10 mg/ml. Subsequently, the stock was further diluted in water to a concentration of 512 μg/ml. The following serial dilutions (factor 2) were performed in water resulting in the following […] testing concentrations: 256 μg/ml, 128 μg/ml, 64 μg/ml, 32 μg/ml, 16 μg/ml, 8 μg/ml, 4 μg/ml, 2 μg/ml, 1 μg/ml, 0.5 μg/ml, 0.25 μg/ml and 0.125 μg/ml. Diluted compounds of the invention were transferred in 100 μl volume to the microtiter plate wells.
(§5) Pre-cultures of bacteria were grown in appropriate liquid media (refer to ATCC webpage, www.atcc.org) and afterwards were inoculated in corresponding liquid medium. 100 μl of the inoculums [adjusted to an amount of app. 1×10^6 microorganisms per ml (range of 10^5-10^8 microorganisms per ml)] were added to each of the testing compound concentrations and cultivated under the appropriate conditions.
(§6) Before and after incubation, bacterial growth was determined by photometric analysis against a positive control containing growing bacteria without compound and a sterile/negative control containing only the medium.

[5] = test system: Streptococcus pneumoniae DSM 11967 (ATCC 49619); assay: Anti-bacterial bouillon microdilution assay (MIC), bacterium B; assay type: cell-based; details: Streptococcus pneumoniae DSM 11967, 24 h
Protocol: as §2, §3, §4, §5, §6

[6] = test system: PC3 (human prostate carcinoma) cells; assay: XTT cytotoxicity assay, PC3 cells; assay type: cell-based; details: Homo sapiens, PC-3; 31.6 μM, second set of experiments; read-out: PC3 % INH [31.6 μM]
Method in brief: as §1

[7] = test system: SKOV-3 (human ovary adenocarcinoma) cells; assay: XTT cytotoxicity assay, SKOV-3 cells; assay type: cell-based; details: Homo sapiens, SK-OV-3, second set of experiments, read-out: SKOV-3 % INH [100 μM]
Protocol: On the first day of the experiment cells were harvested from exponential phase cultures by trypsination, counted and plated into 96 well flat-bottom micro titer plates depending on the cell line as listed below: [table] After a 24 h recovery to allow the cells to resume exponential growth, the test compounds were diluted immediately prior to use and transferred in 25 μl volume to the wells. Following 2 days of continuous drug exposure 50 μl of freshly prepared XTT-PMS solution {2% 0.386 mg/ml PMS (N-Methyl Dibenzopyrazine Methylsulphate; Sigma, Cat. No. […] Serva, Cat. No. 38450) in RPMI 1640 medium without phenol red} was added to the wells. To measure the proportion of living cells, the cells were incubated for 3 h with XTT-PMS reagent at 37° C., 5% CO2, humidified atmosphere allowing to form the formazan salt. […] Inhibition curves were generated and IC50 values calculated by using GraphPad Prism.

[8] = test system: Bacteroides fragilis DSM 2151 (ATCC 25285); assay: Anti-bacterial bouillon microdilution assay (MIC), bacterium E; assay type: cell-based; details: anaerob, 24 h
Protocol: as §2, §3, §4, §5, §6

[9] = test system: Enterococcus faecium DSM 20477 (ATCC 19434); assay: Anti-bacterial bouillon microdilution assay (MIC), bacterium C; assay type: cell-based; details: Enterococcus faecium DSM 20477, 24 h
Protocol: as §2, §3
as §4, with “wells. […]” for “wells.”
as §6

Leishmaniasis = details: clinical phase III trials, parenteral; cited from earlier work

Question: With `CCCCCCCCCCCCCCCCOP(=O)([O-])OCC[N+]1(C)CCCCCC1` [Compound 89, Phosphoric acid hexadecyl ester 2-(1-methyl-azepan-1-yl)-ethyl ester] as the molecule, how does the inhibition at 31.6 µM [1] read?
Answer: The inhibition at 31.6 µM was 11.3%.

Question: What about the MIC [2] of the same molecule?
Answer: Its MIC is 4 µg/mL (≈ 8.66 µM).

Question: And the “Mean % INH” value [3]?
Answer: Its value is 29.3%.

Question: What about the MIC [4] of the same molecule?
Answer: Its MIC is 8 µg/mL (≈ 17.3 µM).

Question: And the MIC [5]?
Answer: The MIC was 4 µg/mL (≈ 8.66 µM).

Question: What about the inhibition at 31.6 µM [6] of the same molecule?
Answer: Its inhibition at 31.6 µM is 50.6%.

Question: What about the inhibition at 100 µM [7] of the same molecule?
Answer: Its inhibition at 100 µM is 26.1%.

Question: What does the source list for `CCCCCCCCCCCCCCCCOP(=O)([O-])OCC[N+](C)(C)c1ccccc1` [Compound 107, Phosphoric acid hexadecyl ester 2-(N-phenyl-N,N-dimethyl-amino)-ethyl ester]?
Answer: MIC [2]: 4 µg/mL (≈ 8.52 µM); MIC [8]: 64 µg/mL (≈ 136 µM); MIC [4]: 8 µg/mL (≈ 17 µM); MIC [9]: 8 µg/mL (≈ 17 µM); MIC [5]: 4 µg/mL (≈ 8.52 µM)

Question: With `NC[C@@H]1O[C@H](O[C@H]2[C@@H](O)[C@H](O[C@@H]3[C@@H](O)[C@H](N)C[C@H](N)[C@H]3O[C@H]3O[C@H](CO)[C@@H](O)[C@H](O)[C@H]3N)O[C@@H]2CO)[C@H](N)[C@@H](O)[C@@H]1O` [paromomycin, O-2-amino-2-deoxy-alpha-D-glucopyranosyl-(1-4)-O-[O-2,6-diamino-2,6-dideoxy-beta-L-idopyranosyl-(1-3)-beta-D-ribofuranosyl-(1-5)]-2-deoxy-D-streptamine] as the molecule, how does the “efficient in % of the cases” value (Leishmaniasis) read?
Answer: The value was 95%.
